System: pcy mice
Assay: Effect of tolvaptan and octreotide, alone or combined, on kidney weight of pcy mice (PKD model animals)
Assay type: in vivo
Settings: male pcy mice, 0.03% tolvaptan in feed and/or octreotide 300 μg/kg × 2/day sc; for kidney weight suppressive effect compared to the pcy control group: 15 weeks of age, Dunnett's test; for Kidney weight (% body weight) Mean ± SE: 15 weeks old at autopsy, treated from 5 to 15 weeks of age, pcy control 8.02 ± 0.66, normal DBA 1.53 ± 0.04
Protocol: Individual or combined effects of tolvaptan, which is a vasopressin receptor antagonist, and octreotide, which is a somatostatin analogue, against polycystic kidney disease were evaluated using pcy mice, which are PKD model animals.
The aforementioned pcy mice are adult polycystic kidney disease model mice, and the mode of inheritance is autosomal recessive. […] It has been reported that compared to wild-type mice, pcy mice have increased renal cAMP levels and elevated renal mRNA levels of aquaporin-2 and vasopressin V2 receptor (V2R). For details, see Non-patent Literature (NPL) 1.
Based on the body weight at 4 weeks of age and the renal volume measured by MRI, the pcy mice (male) were divided into the following four groups (each group: 9 mice):
(2) a group receiving a feed containing 0.03% tolvaptan;
(3) a group receiving octreotide (300 μg/kg×2/day sc); and
(4) a group receiving a feed containing 0.03% tolvaptan, and octreotide (300 μg/kg×2/day sc).
As normal control mice, DBA/2JJcl mice (5 mice) were used. A 0.03% tolvaptan-containing MF feed was given to the groups receiving tolvaptan. A MF feed not containing tolvaptan was given to the other groups, i.e., the control group and the group receiving octreotide alone. Sandostatin® subcutaneous injection (100 μg/ml) was diluted with physiological saline and subcutaneously injected in an amount of 300 μg/kg/10 ml to the group receiving octreotide twice a day, morning and evening.
The drug treatment was started from 5 weeks of age, and continued until 15 weeks of age. Urine was collected from each mouse at 14 weeks of age using metabolic cages for 19 hours, and urine volume and urinary albumin excretion were measured.
The DBA control mice and pcy mice were sacrificed under isoflurane anesthesia at 15 weeks of age to collect their blood, and right and left kidneys. Plasma parameters were measured from the obtained blood, and the weight of right and left kidneys was measured.

Compound | kidney weight suppressive effect compared to the pcy control group | Kidney weight (% body weight) Mean ± SE [% body weight]
Cc1ccccc1C(=O)Nc1ccc(C(=O)N2CCCC(O)c3cc(Cl)ccc32)c(C)c1 (stereo not shown) [tolvaptan, 7-chloro-5-hydroxy-1-[2-methyl-4-(2-methylbenzoylamino)benzoyl]-2,3,4,5-tetrahydro-1H-benzoazepine] | did not exhibit significant kidney weight suppressive effects | 7.28 ± 0.84
(−)-D-phenylalanyl-L-cysteinyl-L-phenylalanyl-D-tryptophyl-L-lysyl-L-threonyl-N-[(1R,2R)-2-hydroxy-1-(hydroxymethyl)propyl]-L-cysteinamide cyclic (2-47) disulfide [octreotide] | did not exhibit significant kidney weight suppressive effects | 6.68 ± 0.65

From US11013746B2, “Drug for preventing and/or treating polycystic kidney disease” (OTSUKA PHARMACEUTICAL CO., LTD., priority 2012, dated 2021)
